Test system: SFV vector VA7-mCherry
Assay: Live microscopy of SFV infection in Pa02C pancreatic cancer cells
Type: cell-based, Semliki Forest virus
Settings: 1 µM, low moi (0.01), 96 h

CC1(C)CCC(c2ccc(Cl)cc2)=C(CN2CCN(c3ccc(C(=O)NS(=O)(=O)c4ccc(N[C@H](CCN5CCOCC5)CSc5ccccc5)c(S(=O)(=O)C(F)(F)F)c4)cc3)CC2)C1 [ABT-263]
effect on replication and spread of SFV: attenuated the replication and spread of the virus

Source: article PMC5691623 (Viruses, 2017)
